Each structure is given as a SMILES string.

The target of this test is T1, Human pyruvate kinase R (PKR) (Homo sapiens, UniProt P30613).
T1 construct: Human pyruvate kinase R (PKR), residues 14-574; 6x-His (N, cleaved yes); 8x-Arg (N, cleaved yes); SUMO (N, cleaved yes); host or cells: E. coli
Nature of the test: Biochemical assay for activation of pyruvate kinase R (Kinase-Glo luminescence measurement of ATP generation). The conditions noted are these: for AC50: PKR biochemical assay, 0.1 nM PKR, 0.3 mM ADP, 2 mM FBP, 0.1 mM PEP; for Emax: maximal activation level relative to the activation level achieved by the literature compound AG-348 @ 10 μM. As to the method: Human pyruvate kinase R (PKR), residues 14-574, and human pyruvate kinase M2, residues 1-531, were cloned into expression plasmids and obtained from ATUM Bio (Newark, Calif.). Proteins were translated as fusions with 6×-His, 8×-Arg, and SUMO at the N-terminus. A third construct of human PKR was truncated, residues 50-574, and similarly cloned for use in crystallography experiments. All proteins were cloned, expressed in E. coli, and purified using similar protocols. Cells were grown at 30° C. in Luria-Bertani broth supplemented with 0.4% glucose to OD600=0.8 and induced with 0.4 mM IPTG at 16° C. for 18 hours. Cells were harvested by centrifugation, resuspended in 50 mM potassium phosphate pH 8.0, 500 mM NaCl, 25 mM imidazole pH 8.0, and 3 mM (3-mercaptoethanol. Cells were lysed using a LM20 microfluidizer from Microfluidics (Westwood, Mass.). The crude lysate was immediately supplemented with 0.2 mM phenylmethylsulfonyl fluoride (PMSF) and centrifuged at 20,000 g for 20 minutes. The soluble fraction was subsequently incubated with 2 mL Ni-NTA (GE Healthcare) per 1,000 ODs for 1 hour at 4° C. Following incubation with the Ni-NTA resin, lysate was removed by pelleting resin at 2,500 g for 3 minutes and washed 3 times with 9 bed volumes of 50 mM potassium phosphate pH 8.0, 500 mM NaCl, 25 mM imidazole, and 3 mM 3-mercaptoethanol. Following the batch wash Ni-NTA resin was loaded onto a gravity column and His-tagged protein was eluted with 6 bed volumes of 10 mM Tris/HCl pH 8.0, 200 mM NaCl, 500 mM imidazole, and 3 mM (3-mercaptoethanol. Eluted protein was dialyzed overnight against 10 mM Tris/HCl pH 8.0, 200 mM NaCl, and 1 mM DTT and the 6×-His-8×-Arg-SUMO-tag was cleaved using a 20:1 molar ratio of protein:3C protease. The protein was purified by anion exchange chromatography on a HiTrapQ or MonoQ 10/100 GL column (GE Healthcare) via a linear NaCl gradient and twice by size exclusion chromatography using a Superdex S200 26/60 column (GE Healthcare) run in 10 mM Tris/HCl pH 8.0, 200 mM NaCl, 10 mM MgCl2, 1 mM DTT. Proteins were concentrated to −12 mg/mL for crystallization and flash frozen for storage.
Biochemical Assay for Activation of Pyruvate Kinase R
Activation of pyruvate kinase R (PKR) and pyruvate kinase M2 (PKM2) were measured using a luminescence based measurement of ATP generation and the Kinase-Glo luminescent kinase reagent kit.

T1 sequence (P30613 14-574): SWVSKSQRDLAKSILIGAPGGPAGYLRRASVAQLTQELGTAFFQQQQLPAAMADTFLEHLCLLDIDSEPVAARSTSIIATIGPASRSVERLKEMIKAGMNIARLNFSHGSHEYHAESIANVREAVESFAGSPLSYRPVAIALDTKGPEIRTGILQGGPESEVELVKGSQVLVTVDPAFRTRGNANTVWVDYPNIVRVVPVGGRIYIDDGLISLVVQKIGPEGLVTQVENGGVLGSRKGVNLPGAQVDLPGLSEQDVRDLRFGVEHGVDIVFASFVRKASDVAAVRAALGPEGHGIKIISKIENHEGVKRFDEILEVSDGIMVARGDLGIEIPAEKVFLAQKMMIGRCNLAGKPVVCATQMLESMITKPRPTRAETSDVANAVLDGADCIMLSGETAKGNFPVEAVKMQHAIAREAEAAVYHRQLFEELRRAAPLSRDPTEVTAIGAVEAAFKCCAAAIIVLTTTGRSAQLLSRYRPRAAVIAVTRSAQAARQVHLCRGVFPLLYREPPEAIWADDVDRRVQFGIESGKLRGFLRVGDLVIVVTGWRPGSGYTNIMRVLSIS

Broadly, the AC50 is the concentration giving half of the maximal activity seen. Read a high AC50 as weaker potency. A word on the Emax: it is the maximal effect, on the per cent scale that the assay sets. Molecule `Cc1nc(CNC(=O)NCc2ncnn2-c2cncc(C3CC3)c2)n(-c2ccc(Cl)c(F)c2)n1` [Compound 133, 1-{[1-(4-chloro-3-fluorophenyl)-3-methyl-1H-1,2,4-triazol-5-yl]methyl}-3-{[1-(5-cyclopropylpyridin-3-yl)-1H-1,2,4-triazol-5-yl]methyl}urea] yielded an AC50 of 0.16 µM and an Emax of 86%.

In turn, `CCc1nc(CNC(=O)NCc2ncnn2-c2ccc3nccnc3c2)n(-c2ccc(Cl)c(F)c2)n1` [Compound 49, 1-{[1-(4-chloro-3-fluorophenyl)-3-ethyl-1H-1,2,4-triazol-5-yl]methyl}-3-{[1-(quinoxalin-6-yl)-1H-1,2,4-triazol-5-yl]methyl}urea] showed an AC50 of 0.15 µM and an Emax of 79%.

Molecule `Cc1nc(CNC(=O)NCc2ncnn2-c2cc(C)c3cncnc3c2)n(-c2ccc(Cl)c(F)c2)n1` [Compound 105, 1-{[1-(4-chloro-3-fluorophenyl)-3-methyl-1H-1,2,4-triazol-5-yl]methyl}-3-{[1-(5-methylquinazolin-7-yl)-1H-1,2,4-triazol-5-yl]methyl}urea] had an AC50 of 0.88 µM and an Emax of 59%.

With `O=C(NCc1ncnn1-c1ccc2cccnc2c1)NCc1ncnn1-c1ccc2cccnc2c1` [Compound 81, 1,3-bis({[1-(quinolin-7-yl)-1H-1,2,4-triazol-5-yl]methyl})urea], the activity was half-maximal at 0.28 µM (AC50) and the Emax was 64%.

On to `CCc1nc(CNC(=O)NCc2ncnn2-c2ccc(Cl)c(F)c2)n(-c2ccc3cccnc3c2)n1` [Compound 92, 1-{[1-(4-chloro-3-fluorophenyl)-1H-1,2,4-triazol-5-yl]methyl}-3-{[3-ethyl-1-(quinolin-7-yl)-1H-1,2,4-triazol-5-yl]methyl}urea], for which half-maximal activity (AC50) was put at 0.052 µM and the Emax was determined as 72%.

Molecule `O=C(NCc1nnnn1-c1ccc(Cl)cc1)NCc1nnnn1-c1ccc(Cl)cc1` [Compound 1, 1,3-bis({[1-(4-chlorophenyl)-1H-1,2,3,4-tetrazol-5-yl]methyl})urea] showed an AC50 of 0.189 µM and an Emax of 96%.

In turn, `Cc1ccc(-n2nnnc2CNC(=O)NCc2nnnn2-c2ccc(C)cc2F)c(F)c1` [Compound 114, 1,3-bis({[1-(2-fluoro-4-methylphenyl)-1H-1,2,3,4-tetrazol-5-yl]methyl})urea] returned an AC50 of 0.67 µM and an Emax of 61%.

Regarding `O=C(NCc1ncnn1-c1ccc(Cl)c(F)c1)NCc1ncnn1-c1ccc2cccnc2c1` [Compound 75, 1-{[1-(4-chloro-3-fluorophenyl)-1H-1,2,4-triazol-5-yl]methyl}-3-{[1-(quinolin-7-yl)-1H-1,2,4-triazol-5-yl]methyl}urea], half-maximal activity (AC50) was put at 0.033 µM and the Emax came to 47%.

Turning to `CCN(Cc1ncnn1-c1ccc(OC)nc1)C(=O)NCc1nc(C)nn1-c1ccc(Cl)c(F)c1` [Compound 124, 3-{[1-(4-chloro-3-fluorophenyl)-3-methyl-1H-1,2,4-triazol-5-yl]methyl}-1-ethyl-1-{[1-(6-methoxypyridin-3-yl)-1H-1,2,4-triazol-5-yl]methyl}urea], the AC50 was determined as 0.27 µM and the maximal response (Emax) is 79%.

The molecule `Cc1nc(CNC(=O)NCc2ncnn2-c2ccc3ccncc3c2)n(-c2ccc(Cl)c(F)c2)n1` [Compound 39, 3-{[1-(4-chloro-3-fluorophenyl)-3-methyl-1H-1,2,4-triazol-5-yl]methyl}-1-{[1-(isoquinolin-7-yl)-1H-1,2,4-triazol-5-yl]methyl}urea] showed an AC50 of 0.051 µM and an Emax of 63%.

The molecule `O=C(NCc1ncnn1-c1ccc(Cl)cc1)NCc1ncnn1-c1ccc(Cl)cc1` [Compound 61, 1,3-bis({[1-(4-chlorophenyl)-1H-1,2,4-triazol-5-yl]methyl})urea] displayed an AC50 of 0.011 µM and an Emax of 36%.

Molecule `Cn1ncc2cc(-n3ncnc3CNC(=O)NCc3ncnn3-c3ccc(Cl)c(F)c3)ccc21` [Compound 52, 1-{[1-(4-chloro-3-fluorophenyl)-1H-1,2,4-triazol-5-yl]methyl}-3-{[1-(1-methyl-1H-indazol-5-yl)-1H-1,2,4-triazol-5-yl]methyl}urea] had an AC50 of 0.024 µM and an Emax of 37%.

In turn, `O=C(NCc1ncnn1-c1ccc2cccnc2c1)NCc1nnnn1-c1ccc(Cl)c(F)c1` [Compound 80, 1-{[1-(4-chloro-3-fluorophenyl)-1H-1,2,3,4-tetrazol-5-yl]methyl}-3-{[1-(quinolin-7-yl)-1H-1,2,4-triazol-5-yl]methyl}urea] returned an AC50 of 0.2 µM and an Emax of 106%.

Molecule `Cc1nc(CNC(=O)NCc2ncnn2-c2ccc(C3CC3)nc2)n(-c2ccc(Cl)c(F)c2)n1` [Compound 131, 1-{[1-(4-chloro-3-fluorophenyl)-3-methyl-1H-1,2,4-triazol-5-yl]methyl}-3-{[1-(6-cyclopropylpyridin-3-yl)-1H-1,2,4-triazol-5-yl]methyl}urea] had an AC50 of 0.078 µM and an Emax of 94%.

`Cc1nc(CNC(=O)NCc2ncnn2CC2CCCCC2)n(-c2ccc(Cl)c(F)c2)n1` [Compound 16, 3-{[1-(4-chloro-3-fluorophenyl)-3-methyl-1H-1,2,4-triazol-5-yl]methyl}-1-{[1-(cyclohexylmethyl)-1H-1,2,4-triazol-5-yl]methyl}urea] came in with an AC50 of 0.055 µM and an Emax of 93%.

As for `CC1(Cn2ncnc2CNC(=O)NCc2ncnn2-c2ccc(Cl)c(F)c2)CCOCC1` [Compound 11, 3-{[1-(4-chloro-3-fluorophenyl)-1H-1,2,4-triazol-5-yl]methyl}-1-({1-[(4-methyloxan-4-yl)methyl]-1H-1,2,4-triazol-5-yl}methyl)urea], half-maximal activity (AC50) was put at 0.088 µM and the Emax turned out to be 49%.

The molecule `O=C(NCc1ncnn1-c1ccc(Cl)c(F)c1)N(CCO)Cc1nnnn1-c1ccc(Cl)c(F)c1` [Compound 34, 1-{[1-(4-chloro-3-fluorophenyl)-1H-1,2,3,4-tetrazol-5-yl]methyl}-3-{[1-(4-chloro-3-fluorophenyl)-1H-1,2,4-triazol-5-yl]methyl}-1-(2-hydroxyethyl)urea] registered an AC50 of 0.83 µM and an Emax of 89%.

`Cc1ccc(-n2ncnc2CNC(=O)NCc2ncnn2-c2ccc(C)c(C)c2)cc1C` [Compound 57, 1,3-bis({[1-(3,4-dimethylphenyl)-1H-1,2,4-triazol-5-yl]methyl})urea]: the AC50 was 0.064 µM and the Emax is 87%.

Regarding `Cc1nc(CNC(=O)NCc2ncnn2Cc2ccccc2)n(-c2ccc(Cl)c(F)c2)n1` [Compound 18, 1-[(1-benzyl-1H-1,2,4-triazol-5-yl)methyl]-3-{[1-(4-chloro-3-fluorophenyl)-3-methyl-1H-1,2,4-triazol-5-yl]methyl}urea], the activity was half-maximal at 0.037 µM (AC50) and the Emax came to 85%.

`Cc1nc(CNC(=O)N(C)Cc2nc(C)nn2-c2ccc(Cl)c(F)c2)n(-c2ccc(Cl)c(F)c2)n1` [Compound 78, 1,3-bis({[1-(4-chloro-3-fluorophenyl)-3-methyl-1H-1,2,4-triazol-5-yl]methyl})-1-methylurea] registered an AC50 of 0.11 µM and an Emax of 88%.

Take `Cc1nc(CNC(=O)NCc2ncnn2-c2ccn3ccnc3c2)n(-c2ccc(Cl)c(F)c2)n1` [Compound 128, 1-{[1-(4-chloro-3-fluorophenyl)-3-methyl-1H-1,2,4-triazol-5-yl]methyl}-3-[(1-{imidazo[1,2-a]pyridin-7-yl}-1H-1,2,4-triazol-5-yl)methyl]urea]: half-maximal activity (AC50) was put at 0.024 µM and the Emax stood at 59%.

Molecule `Cc1nc(CNC(=O)NCc2nc(C)nn2-c2cnc3ccccc3c2)n(-c2ccc(Cl)c(F)c2)n1` [Compound 138, 1-{[1-(4-chloro-3-fluorophenyl)-3-methyl-1H-1,2,4-triazol-5-yl]methyl}-3-{[3-methyl-1-(quinolin-3-yl)-1H-1,2,4-triazol-5-yl]methyl}urea] had an AC50 of 0.044 µM and an Emax of 129%.

Molecule `Cc1nc(CNC(=O)NCc2ncnn2CC2CCOCC2)n(-c2ccc(Cl)c(F)c2)n1` [Compound 10, 3-{[1-(4-chloro-3-fluorophenyl)-3-methyl-1H-1,2,4-triazol-5-yl]methyl}-1-({1-[(oxan-4-yl)methyl]-1H-1,2,4-triazol-5-yl}methyl)urea] registered an AC50 of 0.08 µM and an Emax of 74%.
